# Data from patent US8222219B2, “Glucopyranoside compound” (Mitsubishi Tanabe Pharma Corporation, priority 2003, dated 2012).
# Molecular target: T1, human SGLT2 (Homo sapiens, UniProt P31639)
# T1 construct: expressed in transfected cells; host or cells: CHOK1 (CHO-K1) cells, kept under Geneticin selection
# T1 sequence (P31639 1-672): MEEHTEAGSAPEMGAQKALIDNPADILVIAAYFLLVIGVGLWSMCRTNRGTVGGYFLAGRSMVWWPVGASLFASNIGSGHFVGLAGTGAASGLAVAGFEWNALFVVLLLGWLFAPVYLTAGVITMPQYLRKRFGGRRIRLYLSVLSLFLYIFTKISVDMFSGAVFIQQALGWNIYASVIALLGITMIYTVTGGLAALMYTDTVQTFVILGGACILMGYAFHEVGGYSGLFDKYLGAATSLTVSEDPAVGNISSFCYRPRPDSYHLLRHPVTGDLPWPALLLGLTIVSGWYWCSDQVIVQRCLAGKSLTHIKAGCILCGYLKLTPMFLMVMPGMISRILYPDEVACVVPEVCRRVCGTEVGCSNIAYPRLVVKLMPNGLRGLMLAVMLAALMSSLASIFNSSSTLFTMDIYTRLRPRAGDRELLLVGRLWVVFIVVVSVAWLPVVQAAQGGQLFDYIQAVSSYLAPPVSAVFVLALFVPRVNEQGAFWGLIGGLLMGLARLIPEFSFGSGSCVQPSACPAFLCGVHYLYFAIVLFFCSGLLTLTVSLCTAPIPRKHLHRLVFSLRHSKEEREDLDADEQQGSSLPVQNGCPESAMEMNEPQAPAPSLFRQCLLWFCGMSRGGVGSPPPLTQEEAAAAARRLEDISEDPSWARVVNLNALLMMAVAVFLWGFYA
# Test: Assay for SGLT2 inhibition (14C-AMG uptake in CHOK1 cells expressing human SGLT2)
# Assay type: cell-based
# Conditions: not given
# Procedure: 1. Assay for SGLT2 Inhibition
# Compounds described in the above examples were used for the SGLT2 inhibition assay.
# CHOK1 cells expressing human SGLT2 were seeded in 24-well plates at a density of 400,000 cells/well in F-12 nutrient mixture (Ham's F-12) containing 10% fetal bovine serum, 400 μg/ml Geneticin, 50 units/ml sodium penicillin G (Gibco-BRL) and 50 μg/ml streptomycin sulfate. […] Test compounds were dissolved in DMSO. The final concentration of DMSO was 0.5%. The transport reaction was initiated by addition of 50 μl [^14C]-methyl-α-D-glucopyranoside (^14C-AMG) solution (final concentration, 0.5 mM). After incubation for 2 hours at 37° C., the uptake was stopped by aspiration of the incubation mixture, the cells were washed three times with ice-cold PBS. Then, cells were solubilized with 0.3 N NaOH and aliquots were taken for determination of radioactivity by a liquid scintillation counter. Nonspecific AMG uptake was defined as that which occurred in the presence of 100 μM of phlorizin, a specific inhibitor of sodium-dependent glucose cotransporter. Specific uptake was normalized for the protein concentrations measured by the method of Bradford.
row,Compound,IC50 [nM]
1,Cc1ccc([C@@H]2O[C@H](CO)[C@@H](O)[C@H](O)[C@H]2O)cc1Cc1ccc(-c2ccc(F)cc2)s1 [Example 84],2.2

# Same assay, conditions: CHOK1 cells expressing human SGLT2; 14C-AMG uptake 0.5 mM, 2 hours at 37° C.; read-out: IC50
row,Compound,IC50 [nM]
1,OC[C@H]1O[C@@H](c2ccc(Cl)c(Cc3ccc(-c4ccccc4F)s3)c2)[C@H](O)[C@@H](O)[C@@H]1O [Example 69],7.9
2,OC[C@H]1O[C@@H](c2ccc(Cl)c(Cc3ccc(-c4ccc(F)cc4)s3)c2)[C@H](O)[C@@H](O)[C@@H]1O [Example 70],7
3,CCOc1cccc(-c2ccc(Cc3cc([C@@H]4O[C@H](CO)[C@@H](O)[C@H](O)[C@H]4O)ccc3Cl)s2)c1 [Example 72],4.6
4,OC[C@H]1O[C@@H](c2ccc(Cl)c(Cc3ccc(-c4cccc(F)c4)s3)c2)[C@H](O)[C@@H](O)[C@@H]1O [Example 78],1.7
5,CCOc1cccc(-c2ccc(Cc3cc([C@@H]4O[C@H](CO)[C@@H](O)[C@H](O)[C@H]4O)ccc3F)s2)c1 [Example 79],9
6,OC[C@H]1O[C@@H](c2ccc(F)c(Cc3ccc(-c4cccc(F)c4)s3)c2)[C@H](O)[C@@H](O)[C@@H]1O [Example 80],6.8
7,Cc1cccc(-c2ccc(Cc3cc([C@@H]4O[C@H](CO)[C@@H](O)[C@H](O)[C@H]4O)ccc3Cl)s2)c1 [Example 87],3.4
8,OC[C@H]1O[C@@H](c2ccc(Cl)c(Cc3ccc(-c4cccc(Cl)c4)s3)c2)[C@H](O)[C@@H](O)[C@@H]1O [Example 88],2.6
9,Cc1ccc([C@@H]2O[C@H](CO)[C@@H](O)[C@H](O)[C@H]2O)cc1Cc1ccc(-c2cccc(Cl)c2)s1 [Example 89],3
10,"Cc1ccc([C@@H]2O[C@H](CO)[C@@H](O)[C@H](O)[C@H]2O)cc1Cc1ccc(-c2cccc(N(C)C)c2)s1 [Example 122, 1-(β-D-glucopyranosyl)-3-(5-(3-dimethylaminophenyl)-2-thienylmethyl)-4-methylbenzene]",8.2
11,"Cc1ccc([C@@H]2O[C@H](CO)[C@@H](O)[C@H](O)[C@H]2O)cc1Cc1ccc(-c2cccc(C(F)F)c2)s1 [Example 130, 1-(β-D-glucopyranosyl)-3-(5-(3-difluoromethylphenyl)-2-thienylmethyl)-4-methylbenzene]",2.4
12,"CCOc1cccc(-c2ccc(Cc3cc([C@@H]4O[C@H](CO)[C@@H](O)[C@H](O)[C@H]4O)ccc3Cl)s2)n1 [Example 173, 1-(β-D-glucopyranosyl)-4-chloro-3-(5-(6-ethoxy-2-pyridyl)-2-thienylmethyl)benzene]",8
13,"OC[C@H]1O[C@@H](c2ccc(Cl)c(Cc3ccc(-c4ccc(C(F)F)cc4)s3)c2)[C@H](O)[C@@H](O)[C@@H]1O [Example 179, 1-(β-D-glucopyranosyl)-4-chloro-3-(5-(4-difluoromethylphenyl)-2-thienylmethyl)benzene]",9.8
14,"Cc1ccc([C@@H]2O[C@H](CO)[C@@H](O)[C@H](O)[C@H]2O)cc1Cc1ccc(-c2ccc(F)c(C#N)c2)s1 [Example 185, 1-(β-D-glucopyranosyl)-4-methyl-3-(5-(3-cyano-4-fluorophenyl)-2-thienylmethyl)benzene]",5.6
15,"Cc1ccc([C@@H]2O[C@H](CO)[C@@H](O)[C@H](O)[C@H]2O)cc1Cc1ccc(-c2ccc(C#N)nc2)s1 [Example 186, 1-(β-D-glucopyranosyl)-3-(5-(2-cyano-5-pyridyl)-2-thienylmethyl)-4-methylbenzene]",5.4
16,"N#Cc1ccc(-c2ccc(Cc3cc([C@@H]4O[C@H](CO)[C@@H](O)[C@H](O)[C@H]4O)ccc3Cl)s2)cn1 [Example 187, 1-(β-D-glucopyranosyl)-4-chloro-3-(5-(2-cyano-5-pyridyl)-2-thienylmethyl)benzene]",4.3
17,"CCOC(=O)c1ccc(-c2ccc(Cc3cc([C@@H]4O[C@H](CO)[C@@H](O)[C@H](O)[C@H]4O)ccc3Cl)s2)cc1 [Example 191, 1-(β-D-glucopyranosyl)-4-chloro-3-(5-(4-ethoxycarbonylphenyl)-2-thienylmethyl)benzene]",7.7
18,"NC(=O)c1ccc(-c2ccc(Cc3cc([C@@H]4O[C@H](CO)[C@@H](O)[C@H](O)[C@H]4O)ccc3Cl)s2)cc1 [Example 193, 1-(β-D-glucopyranosyl)-3-(5-(4-carbamoylphenyl)-2-thienylmethyl)-4-chlorobenzene]",0.9
19,"Nc1ccc(-c2ccc(Cc3cc([C@@H]4O[C@H](CO)[C@@H](O)[C@H](O)[C@H]4O)ccc3Cl)s2)cc1 [Example 197, 1-(β-D-glucopyranosyl)-3-(5-(4-aminophenyl)-2-thienylmethyl)-4-chlorobenzene]",2
20,OC[C@H]1O[C@@H](c2ccc(Cl)c(Cc3ccc(-c4cncs4)s3)c2)[C@H](O)[C@@H](O)[C@@H]1O [Example 204],1.4
21,OC[C@H]1O[C@@H](c2ccc(Cl)c(Cc3ccc(-c4cscn4)s3)c2)[C@H](O)[C@@H](O)[C@@H]1O [Example 207],0.6
22,Cc1ccc([C@@H]2O[C@H](CO)[C@@H](O)[C@H](O)[C@H]2O)cc1Cc1ccc(-c2cscn2)s1 [Example 210],1

# Other lines, results leading:
row,IC50 [nM],Compound
1,9.5,"N#Cc1ccc(-c2ccc(Cc3cc([C@@H]4O[C@H](CO)[C@@H](O)[C@H](O)[C@H]4O)ccc3Cl)s2)cc1F [Example 183, 1-(β-D-glucopyranosyl)-4-chloro-3-(5-(4-cyano-3-fluorophenyl)-2-thienylmethyl)benzene]"
2,8.2,Cc1ccc([C@@H]2O[C@H](CO)[C@@H](O)[C@H](O)[C@H]2O)cc1Cc1ccc(-c2cc(F)cc(F)c2)s1 [Example 201]
3,7.7,"Cc1ccc([C@@H]2O[C@H](CO)[C@@H](O)[C@H](O)[C@H]2O)cc1Cc1ccc(-c2ccc(C(F)F)cc2)s1 [Example 176, 1-(β-D-glucopyranosyl)-3-(5-(4-difluoromethylphenyl)-2-thienylmethyl)-4-methylbenzene]"
4,7.4,"O=C(O)c1ccc(-c2ccc(Cc3cc([C@@H]4O[C@H](CO)[C@@H](O)[C@H](O)[C@H]4O)ccc3Cl)s2)cc1 [Example 192, 1-(β-D-glucopyranosyl)-3-(5-(4-carboxyphenyl)-2-thienylmethyl)-4-chlorobenzene]"
5,6.6,CCOc1ccc(-c2ccc(Cc3cc([C@@H]4O[C@H](CO)[C@@H](O)[C@H](O)[C@H]4O)ccc3Cl)s2)cc1 [Example 71]
6,4,Cc1ccc([C@@H]2O[C@H](CO)[C@@H](O)[C@H](O)[C@H]2O)cc1Cc1ccc(-c2ccc3c(c2)OCO3)s1 [Example 145]
7,3.9,COc1ccc(-c2ccc(Cc3cc([C@@H]4O[C@H](CO)[C@@H](O)[C@H](O)[C@H]4O)ccc3C)s2)cn1 [Example 209]
8,2.8,Cc1cccc(-c2ccc(Cc3cc([C@@H]4O[C@H](CO)[C@@H](O)[C@H](O)[C@H]4O)ccc3C)s2)c1 [Example 86]
9,2.4,COc1cccc(-c2ccc(Cc3cc([C@@H]4O[C@H](CO)[C@@H](O)[C@H](O)[C@H]4O)ccc3C)s2)n1 [Example 208]
10,2,COc1cccc(-c2ccc(Cc3cc([C@@H]4O[C@H](CO)[C@@H](O)[C@H](O)[C@H]4O)ccc3C)s2)c1 [Example 90]
11,1.6,"NC(=O)c1ccc(-c2ccc(Cc3cc([C@@H]4O[C@H](CO)[C@@H](O)[C@H](O)[C@H]4O)ccc3Cl)s2)cn1 [Example 188, 1-(β-D-glucopyranosyl)-3-(5-(2-carbamoyl-5-pyridyl)-2-thienylmethyl)-4-chlorobenzene]"
12,1.3,Cc1ccc([C@@H]2O[C@H](CO)[C@@H](O)[C@H](O)[C@H]2O)cc1Cc1ccc(-c2cccc(F)c2)s1 [Example 83]
